Here are results for two substances from patent US20120196324A1, “Method for Producing an Antifungal Peptide in a Filamentous Fungal Host Cell” (NOVOZYMES A/S, priority 2007, published 2012).

For assay [1], the system named is gcs- mutants of A. oryzae ToC1512. Put plainly: Tolerance to ETD151: growth in YCM with ETD151. It is filed as cell-based, Aspergillus oryzae. To be noted: high concentrations of ETD151 (maximum 5815 mg/L), 6 days, 7 gcs- mutants. As for the experimental part:
(§1) Selected strains were subjected to YCM with 0-5815 mg/L ETD151 for 6 days in order to test tolerance to ETD151.
(§2) To test the tolerance to ETD151, ToC1512, BECh2 and the 7 gcs^− mutants were grown in YCM with different amounts of ETD151 (maximum 5815 mg/L). […] One of the gcs^− mutants (no. 18) was hereafter selected and named PtSL1.

In assay [2] the test system is Aspergillus oryzae ToC1512. Briefly: Tolerance to ETD151: growth in YCM with ETD151. It is filed as cell-based. To be noted: YCM with different amounts of ETD151 (maximum 5815 mg/L), 6 days. As for the experimental part:
as §1, §2

The next assay relates to Aspergillus oryzae BECh2. Briefly: Tolerance to ETD151: growth in YCM with ETD151. It is filed as cell-based. To be noted: YCM with different amounts of ETD151 (maximum 5815 mg/L), 6 days. The protocol: as §1, §2
The subject of a further assay is Candida utilis. Put plainly: Bioassay (plate assay, growth inhibition seen as clearing zones). It is filed as cell-based. To be noted: ETD151 expressed by BECh2 transformants (pPtSL4); Candida utilis as target organism. The protocol:
ETD151 was diluted to 58 μg/ml in peptide dilution buffer (0.1% BSA, 0.01% Acetic Acid) and further on to 6 μg/ml and 0.6 μg/ml and used as control. Candida utilis was grown on YPD plates, A. oryzae on Cove N medium slants. An inoculum of fungal growth was resuspended in 0.1% Tween to an optical density of approx. 1 McFarland Unit. A NUNC-tube with 15 ml ⅓ PD agarose at approx. 42° C. was inoculated with approx. 6×10^6 CFU, mixed thoroughly and poured into a sterile 9 cm square dish (Falcon 351112) on a levelling table and allowed to solidify and set for 30 minutes. Ten μl of each of the peptide dilutions was added to the surface of the plate. The plates were incubated at 30° C. (or 37° C. as appropriate). The next day, growth was detected either by observing the inhibition zones by oblique illumination (or by adding 3 ml of a 3 mM MTT solution and leaving the plate for 1-2 hours at room temperature).
BECh2 was transformed with plasmid pPtSL4 and subjected to amdS medium. amdS resistant colonies were isolated as spores from single sporangies and subjected to amdS medium twice. From 45 BECh2 transformants, 43 were subjected to a Bioassay as described using Candida utilis as target organism and to SDS gel electrophoresis.

Assay [3] relates to Pichia pastoris gcs-deletion mutants. To be noted: glucosylceramide synthetase deficient Pichia pastoris; cited from earlier work.
For assay [4], the system named is Candida albicans gcs-deletion mutants. To be noted: glucosylceramide synthetase deficient Candida albicans; cited from earlier work.

With “ETD151: heliomycin derivative, antifungal defensin peptide shown in SEQ ID NO: 7, expressed in Aspergillus oryzae (DKLIGSCVWGAVNYTSNCRAECKRRGYKGGHCGSFANVNCWCET; heliomycin derivative)”, the “growth of strain in presence of ETD151” value in assay [1] is “grew very well”; in assay [2], “did not grow at all”; in the assay with Aspergillus oryzae BECh2, “grew badly”. Also, the “growth inhibition in plate Bioassay” value with Candida utilis is “clearing zones”.

As to “RsAFP2: antifungal defensin (QKLCQRPSGTWSGVCGNNNACKNQCIRLEKARHGSCNYVFPAHKCICYFPC; UniProt P30230 30-80, looked up)”, the “susceptibility of gcs-deletion mutants” value in assay [3] and in assay [4] was “resistant” each time.
